Experimental data reported in paper PMC9322451 (Clinical Pharmacology in Drug Development, 2022).
pIC50: −log10 of the molar value. Read-outs that look alike come from different tables or passages of the source.

Tests used:
neutrophil elastase = test system: neutrophil elastase; parameters: method as in PMID 29484635; details: cited from earlier work
[1] = Phase 1 part B: PK of single 40 mg oral dose, fasted vs fed (food effect); format: in vivo, human; details: for AUC(0-inf) / AUC(0-t) / Cmax / half-life / Tmax: human, plasma
Description: Participants were admitted to the clinical unit the day before doses were administered on days 1 and 8 and discharged on days 2 and 9, after collection of the 36‐hour postdose PK sample. The washout period between doses was 7 days. […] After dosing, participants were required to remain upright for at least 2 hours and refrain from food and drink for at least 4 hours; water was allowed after 2 hours.
For part B, blood sampling for PK assessments was performed following single‐dose administration on days 1 and 8 at 0 (predose), 0.25, 0.5, 1, 1.5, 2, 3, 3.5, 4, 6, 8, 10, 12, 24, 36, and 72 hours after dosing. PK parameters included Cmax, tmax, AUClast, AUC∞, CL/F, apparent volume of distribution after drug administration, and t1/2.
The assay range was 0.250 to 150 ng/mL, with overall precision and accuracy for intra‐ and interassays of 2.2% to 5.9% and −2.7% to 0.3%, respectively.
PK parameters were generated using noncompartmental analysis and were based on the PK population, which included all participants who received at least 1 dose of assigned treatment (safety population) and had evaluable Cmax and AUC parameters without significant protocol deviations. For part B, the PK population included participants who completed both treatment periods and had sufficient concentration data from both periods to fully derive the PK parameters.
Estimates and 90% CIs for the differences between treatment means were computed and converted to ratios by antilog transformation. Results for the geometric mean ratio of treatments (fasted vs fed) were tabulated for Cmax, AUClast, and AUC∞.

CYP2B6 [2] = test system: CYP2B6; parameters: method as in unpublished data; details: ref unpublished data; cited from earlier work
CYP2D6 = test system: CYP2D6; parameters: method as in unpublished data; details: ref unpublished data, read-out: half maximal inhibitory concentration; cited from earlier work
CYP1A2 = test system: CYP1A2; parameters: method as in unpublished data; details: ref unpublished data; cited from earlier work
CYP3A4/5 = test system: CYP3A4/5; parameters: method as in unpublished data; details: ref unpublished data, read-out: half maximal inhibitory concentration; cited from earlier work
[3] = test system: organic anion transporting polypeptides; parameters: method as in unpublished data; details: ref unpublished data, read-out: half maximal inhibitory concentration; cited from earlier work
CYP2B6 [4] = test system: CYP2B6; parameters: method as in unpublished data; details: ref unpublished data, read-out: half maximal inhibitory concentration; cited from earlier work
CYP2C8 = test system: CYP2C8; parameters: method as in unpublished data; details: ref unpublished data; cited from earlier work
[5] = parameters: method as in unpublished data; details: healthy adults; ref unpublished data; cited from earlier work
[6] = parameters: method as in PMID 29484635; details: single 35‐mg dose following a high‐fat breakfast; cited from earlier work
CYP2E1 = test system: CYP2E1; parameters: method as in unpublished data; details: ref unpublished data; cited from earlier work
CYP3A4 = test system: CYP3A4; parameters: method as in unpublished data; details: ref unpublished data; cited from earlier work
CYP2C9 = test system: CYP2C9; parameters: method as in unpublished data; details: ref unpublished data; cited from earlier work
[7] = test system: multidrug and toxin extrusion transporters; parameters: method as in unpublished data; details: ref unpublished data, read-out: half maximal inhibitory concentration; cited from earlier work
P‐glycoprotein (P‐gp) = test system: P‐glycoprotein (P‐gp); parameters: method as in unpublished data; details: ref unpublished data; cited from earlier work
CYP2A6 = test system: CYP2A6; parameters: method as in unpublished data; details: ref unpublished data; cited from earlier work
[8] = parameters: method as in unpublished data; details: ref unpublished data; cited from earlier work
P‐gp = test system: P‐gp; parameters: method as in unpublished data; details: ref unpublished data, read-out: half maximal inhibitory concentration; cited from earlier work
[9] = test system: breast cancer resistance protein; parameters: method as in unpublished data; details: ref unpublished data, read-out: half maximal inhibitory concentration; cited from earlier work
[10] = oral, 40 mg, Japanese n=9, fasted, least squares mean
[11] = oral, 40 mg, Japanese n=9, fed, least squares mean
[12] = oral, 40 mg, White n=10, fasted, least squares mean
[13] = oral, 40 mg, White n=10, fed, least squares mean
[14] = po, 40 mg, 40 mg single oral dose, Japanese, fasted, mean (CV%)
[15] = po, 40 mg, 40 mg single oral dose, Japanese, fed, mean (CV%)
[16] = po, 40 mg, 40 mg single oral dose, White, fasted, mean (CV%)
[17] = po, 40 mg, 40 mg single oral dose, White, fed, mean (CV%)
[18] = po, 40 mg, 40 mg single oral, fasted, Japanese
[19] = po, 40 mg, 40 mg single oral, fasted, White

Cn1c(=O)oc2ccc(-c3ccc(C[C@@H](C#N)NC(=O)[C@@H]4CNCCCO4)cc3)cc21 [Brensocatib]
inhibition of the activity of neutrophil elastase in blood (neutrophil elastase): exposure‐dependent
effect of food on exposure ([1]; 40 mg): no effect
CL/F ([1]; 40 mg single oral, fasted, Japanese): 7.7 L/h
CL/F ([1]; 40 mg single oral, fasted, White): 6.5 L/h
AUClast GMR (fed/fasted), % (90% CI) ([1]; 40 mg, Japanese n=9): 98.4 (94.4‐102.5) %
AUC∞ GMR (fed/fasted), % (90% CI) ([1]; 40 mg, Japanese n=9): 99.2 (95.7‐102.8) %
Cmax GMR (fed/fasted), % (90% CI) ([1]; 40 mg, Japanese n=9): 82.4 (67.9‐99.9) %
Cmax lower in the fed state ([1]; 40 mg, Japanese participants): 17.6%
AUClast GMR (fed/fasted), % (90% CI) ([1]; 40 mg, White n=10): 101.3 (96.8‐106.0) %
AUC∞ GMR (fed/fasted), % (90% CI) ([1]; 40 mg, White n=10): 99.6 (94.6‐104.9) %
Cmax GMR (fed/fasted), % (90% CI) ([1]; 40 mg, White n=10): 101.2 (81.4‐125.9) %
AUC(0-inf) [1, 10]: 5270 ng·h/mL
AUC(0-t) [1, 10]: 4920 ng·h/mL
Cmax [1, 10]: 356 ng/mL
AUC(0-inf) [1, 11]: 5230 ng·h/mL
AUC(0-t) [1, 11]: 4840 ng·h/mL
Cmax [1, 11]: 293 ng/mL
AUC(0-inf) [1, 12]: 6200 ng·h/mL
AUC(0-t) [1, 12]: 5150 ng·h/mL
Cmax [1, 12]: 269 ng/mL
AUC(0-inf) [1, 13]: 6180 ng·h/mL
AUC(0-t) [1, 13]: 5210 ng·h/mL
Cmax [1, 13]: 272 ng/mL
half-life ([1]; oral, 40 mg, fasted and fed, White, read-out: Mean t1/2 (converted)): 27 to 28 h
Tmax ([1]; oral, 40 mg, fasted, Japanese, read-out: median Tmax): 1.3 h
Tmax ([1]; oral, 40 mg, fasted, White, read-out: median Tmax): 1.3 h
half-life ([1]; oral, 40 mg, fed, Japanese, read-out: Mean t1/2 (converted)): 18.4 h
Tmax ([1]; oral, 40 mg, fed, Japanese, read-out: median Tmax): 3 h
Tmax ([1]; oral, 40 mg, fed, White, read-out: median Tmax): 2 h
AUC(0-inf) [1, 14]: 5470 ng·h/mL
AUC(0-t) [1, 14]: 5010 ng·h/mL
Cmax [1, 14]: 352 ng/mL
half-life ([1]; po, 40 mg, 40 mg single oral dose, Japanese, fasted, mean (CV%), read-out: t1/2 (converted)): 19.3 h
Tmax ([1]; po, 40 mg, 40 mg single oral dose, Japanese, fasted, median (range), read-out: Tmax): 1.27 h
AUC(0-inf) [1, 15]: 5490 ng·h/mL
AUC(0-t) [1, 15]: 4980 ng·h/mL
Cmax [1, 15]: 297 ng/mL
half-life ([1]; po, 40 mg, 40 mg single oral dose, Japanese, fed, mean (CV%), read-out: t1/2 (converted)): 19.4 h
Tmax ([1]; po, 40 mg, 40 mg single oral dose, Japanese, fed, median (range), read-out: Tmax): 3 h
AUC(0-inf) [1, 16]: 6680 ng·h/mL
AUC(0-t) [1, 16]: 5480 ng·h/mL
Cmax [1, 16]: 301 ng/mL
half-life ([1]; po, 40 mg, 40 mg single oral dose, White, fasted, mean (CV%), read-out: t1/2 (converted)): 28.9 h
Tmax ([1]; po, 40 mg, 40 mg single oral dose, White, fasted, median (range), read-out: Tmax): 1.25 h
AUC(0-inf) [1, 17]: 6500 ng·h/mL
AUC(0-t) [1, 17]: 5470 ng·h/mL
Cmax [1, 17]: 302 ng/mL
half-life ([1]; po, 40 mg, 40 mg single oral dose, White, fed, mean (CV%), read-out: t1/2 (converted)): 27.5 h
Tmax ([1]; po, 40 mg, 40 mg single oral dose, White, fed, median (range), read-out: Tmax): 2 h
AUC(0-inf) [1, 18]: 5180 ng·h/mL
AUC(0-t) [1, 18]: 4820 ng·h/mL
Cmax [1, 18]: 338 ng/mL
half-life ([1]; po, 40 mg, 40 mg single oral, fasted, Japanese, read-out: Elimination t1/2 (converted)): 18.7 h
AUC(0-inf) [1, 19]: 6200 ng·h/mL
AUC(0-t) [1, 19]: 5150 ng·h/mL
Cmax [1, 19]: 269 ng/mL
half-life ([1]; po, 40 mg, 40 mg single oral, fasted, White, read-out: Elimination t1/2 (converted)): 28 h
Tmax ([1]; po, 40 mg, 40 mg single oral, fasted, both Japanese and White participants, read-out: Tmax): 1.3 h
CYP induction (significant inducer or not) (CYP2B6 [2]): not a significant
pIC50 (CYP2D6): < 4.52
CYP inhibition (CYP1A2): no effect
pIC50 (CYP3A4/5): < 4.52
pIC50 [3]: < 4.96
pIC50 (CYP2B6 [4]): < 4.52
CYP inhibition (CYP2C8): no effect
excreted in urine as unchanged [5]: ≈ 20%
Tmax [6]: 3.3 h
decrease of AUC with food [6]: 9%
decrease of Cmax with food [6]: 36%
CYP inhibition (CYP2E1): no effect
CYP induction (significant inducer or not) (CYP3A4): not a significant
CYP inhibition (CYP2C9): no effect
pIC50 [7]: < 4.96
substrate status (P‐glycoprotein (P‐gp)): substrate
CYP inhibition (CYP2A6): no effect
degradation in human intestinal microsomes and hepatocytes [8]: minimal degradation
pIC50 (P‐gp): < 4.96
pIC50 [9]: < 4.96
